Measurements: paper PMC3605511, “Tumor P-Glycoprotein Correlates with Efficacy of PF-3758309 in in vitro and in vivo Models of Colorectal Cancer” (Frontiers in Pharmacology, 2013)
Read-outs that look alike come from different tables or passages of the source.

Assays:
SW948 = test: Cell proliferation assay, SW948; type: cell-based; details: Homo sapiens; SW948, 72 h, SRB assay
Method: (§1) Cytotoxic/proliferation effects were determined using the sulforhodamine B (SRB) assay (Skehan et al., [1990]) or by resazurin. Briefly, cells in logarithmic growth phase were transferred to 96 well flat bottom plates with lids. One-hundred microliter cell suspensions containing 1500–5000 viable cells were plated into each well and incubated overnight prior to exposure with increasing concentrations of PF-309 for 3–5 days, dependent upon cell type. Media was removed and cells were fixed with cold 10% trichloroacetic acid for 30 min at 4°C. Cells were then washed with water and stained with 0.4% SRB (Fisher Sci., Pittsburgh, PA, USA) for 30 min at room temperature, washed again with 1% acetic acid, followed by stain solubilization with 10 mM tris at room temperature. The plate was then read on a plate reader (Biotek Synergy 2, Winooski, VT, USA) set at an absorbance wavelength of 565 nm. Cell proliferation curves were derived from the raw absorbance (OD) data.
(§2) Since PF-309 appeared to be a strong P-gp and BCRP substrates, we sought to evaluate if the transporters influenced sensitivity in vitro. We evaluated the sensitivity of CRC cell lines to PF-309 treatment in a panel of 27 lines. Cells were exposed to PF-309 at a range of concentrations for 72 h and cell content measured by SRB assay (see Pitts et al., [2013]). […]

SW1116 = test: Cell proliferation assay, SW1116; type: cell-based; details: Homo sapiens, SW 1116; SW1116, 72 h, SRB assay
Method: as §1, §2

Caco-2 = test: Cell proliferation assay, Caco-2; type: cell-based; details: Homo sapiens
Method: as §1, §2

T84 = test: Cell proliferation assay, T84; type: cell-based; details: Homo sapiens; T84, PF-309 alone, 72 h; 1 uM was the maximum concentration used
Method: as §1, §2

RKO = test: Cell proliferation assay, RKO; type: cell-based; details: Homo sapiens, 72 h, SRB assay
Method: as §1, §2

DLD1 PgP_KD1 = test: Proliferation after shRNA knockdown of P-gp, DLD1 PgP_KD1; type: cell-based; details: Homo sapiens, DLD-1; DLD1 PgP_KD1:50, P-gp shRNA knockdown
Method: as §1
(§3) The pGIPZ Pgp-specific shRNA expression cassettes, along with control shRNA plasmids including the original pGIPZ vector were purchased from Open Biosystems (Birmingham, AL, USA). […] Successful knockdown of specific genes and gene products was confirmed by semi-quantitative RT-PCR and immunoblotting with specific antibodies. […]

DLD1 PgP_KD2 = test: Proliferation after shRNA knockdown of P-gp, DLD1 PgP_KD2; type: cell-based; details: Homo sapiens, DLD-1; DLD1 PgP_KD2 :50, P-gp shRNA knockdown
Method: as §1, §3

CRC cell lines = test: Proliferation assays with and without P-gp inhibitor CP-100356, subset of CRC cell lines; type: cell-based, human; details: 0.625 μM CP-100356; five out of the six CRC cell lines
Method: Cytotoxic/proliferation effects were determined using the sulforhodamine B (SRB) assay (Skehan et al., [1990]) or by resazurin. Briefly, cells in logarithmic growth phase were transferred to 96 well flat bottom plates with lids. […] Media was removed and cells were fixed with cold 10% trichloroacetic acid for 30 min at 4°C. Cells were then washed with water and stained with 0.4% SRB (Fisher Sci., Pittsburgh, PA, USA) for 30 min at room temperature, washed again with 1% acetic acid, followed by stain solubilization with 10 mM tris at room temperature. The plate was then read on a plate reader (Biotek Synergy 2, Winooski, VT, USA) set at an absorbance wavelength of 565 nm. Cell proliferation curves were derived from the raw absorbance (OD) data.

[1] = system: HCT15 cell line xenograft; test: CRC cell line xenograft efficacy, HCT15; type: in vivo, mice; details: 25 mg/kg orally twice daily, 14–28 days, end of study tumor volumes
Method: For cell line xenografts, CRC cells were harvested in exponential phase growth and resuspended in a 1:1 mixture of serum-free RPMI 1640 and Matrigel (BD Biosciences). Five to ten million cells per mouse were injected subcutaneously into the flank using a 23-gauge needle. Mice were monitored daily for signs of toxicity and were weighed twice weekly. Tumor size was evaluated twice per week by caliper measurements using the following formula: tumor volume = length × width^2 × 0.52. When tumors reached 200–300 mm^3 mice were randomized into two groups with at least 10 tumors per group. Mice were then treated for 14–28 days (until control tumor volume reach ∼1500 mm^3) with either vehicle control (0.5% methylcellulose), or PF-3758309 (25 mg/kg) twice daily by oral gavage.
Human tumor xenograft models were used to evaluate the efficacy of PF-309 in vivo. Eleven different CRC cell line tumor xenografts were treated with 25 mg/kg PF-309 twice daily by oral gavage for 14–28 days (until control tumor volumes reached ∼1500 mm^3). Tumor volumes were measured throughout the study and the % growth inhibition was calculated from the average end of study tumor volumes by:
% Growth Inhibition= (average control volume−average treated volume)/average control volume×100%

CUCRC006 CRC PDTX model = test: Patient derived tumor xenograft efficacy, CUCRC006; type: in vivo, mice; details: 25 mg/kg orally twice daily, 22–56 days, end of study tumor volumes
Method: (§4) For patient tumor xenografts, surgical specimens of patients undergoing either removal of a primary or metastatic tumor at the University of Colorado Hospital are implanted subcutaneously into five mice for each patient with a 10-G trochar. After a subsequent growth and passage in mice, tumors are excised, and expanded into cohorts for treatment (n = 6–15 per group). Mice were treated with PF-309 or vehicle (0.5% methylcellulose) for 22–56 days (until control tumor volume reach ∼1500 mm^3) twice daily (BID) by oral gavage (PO). Monitoring of mice and measurements of tumors were conducted as described above. % Growth Inhibition= (average control volume−average treated volume)/average control volume×100% In addition to the cell line xenografts, we also treated 12 different patient derived tumor xenograft (PDTX) CRC models with PF-309 (Figure 6). We were unable to assess how ABCB1 gene expression correlated with efficacy in these models. The PDTX models are propagated in vivo, are not immortalized, and are not grown in in vitro culture. […] Tumor and plasma sample pairs were collected from animals at the end of study for eight tumor models (three cell line xenografts and five PDTX models) and concentrations of PF-309 were measured. […]

CUCRC047 CRC PDTX model = test: Patient derived tumor xenograft efficacy, CUCRC047; type: in vivo, mice; details: 25 mg/kg orally twice daily, 22–56 days, end of study tumor volumes
Method: as §4

`Cc1nc(Nc2n[nH]c3c2CN(C(=O)N[C@H](CN(C)C)c2ccccc2)C3(C)C)c2sccc2n1` [PF-309] was tested, and the IC50 (SW948) was > 1000 nM, the IC50 (SW1116) was > 1000 nM and the IC50 (Caco-2; Caco-2, CACO2, 72 h, SRB assay, read-out: IC50) was > 1000 nM. For the same compound, the IC50 (Caco-2; Caco-2, PF-309 alone, 72 h, read-out: PF-309 IC50) was 300 nM, the IC50 (T84) was > 1000 nM and the IC50 (RKO) was 3.6 ± 0.1 nM. For the same compound, the IC50 (DLD1 PgP_KD1) was 26 nM, the IC50 (DLD1 PgP_KD2) was 18 nM and the “fold change in the IC50 of PF-309 caused by CP-100356” value (CRC cell lines) was 4–100 fold. For the same compound, the “% Growth inhibition” value [1] was 18%, the “% Growth inhibition” value (CUCRC006 CRC PDTX model) was 32% and the “% Growth inhibition” value (CUCRC047 CRC PDTX model) was −24%.
